Reference: the supplement of paper PMC10307832

Columns and labels:
Test in all cases: relative viability (nuclei count vs DMSO), 5 days (fraction); higher = more cells survive
NCI-H1975 = system: NCI-H1975
Outline: (§1)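 Relative viability was taken as the ratio of nuclei in treated wells to nuclei in vehicle wells. Lung cancer cell lines in 1536-well plates received compounds by pin tool one day after seeding, either one drug alone or a fixed anchor-drug dose plus five library-drug doses (not always all listed) in √10 steps. Nuclei were counted on 4× images after 5 days of treatment, and values are medians of duplicate plates.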

EPLC-272H = system: EPLC-272H
Outline: as §1

NCI-H441 = system: NCI-H441
Outline: as §1

NCI-H2342 = system: NCI-H2342
Outline: as §1

NCI-H2228 = system: NCI-H2228
Outline: as §1

COR-L 105 = system: COR-L 105
Outline: as §1

NCI-H1355 = system: NCI-H1355
Outline: as §1

NCI-H2085 = system: NCI-H2085
Outline: as §1

H3255 = system: H3255
Outline: as §1

HCC-366 = system: HCC-366
Outline: as §1

NCI-H2087 = system: NCI-H2087
Outline: as §1

NCI-H2009 = system: NCI-H2009
Outline: as §1

NCI-H1792 = system: NCI-H1792
Outline: as §1

ABC-1 = system: ABC-1
Outline: as §1

EKVX = system: EKVX
Outline: as §1

ChaGo-K-1 = system: ChaGo-K-1
Outline: as §1

NCI-H322M = system: NCI-H322M
Outline: as §1

NCI-H460 = system: NCI-H460
Outline: as §1

HCC-827 = system: HCC-827
Outline: as §1

CAL-12T = system: CAL-12T
Outline: as §1

NCI-H1993 = system: NCI-H1993
Outline: as §1

SK-MES-1 = system: SK-MES-1
Outline: as §1

Cc1csc(=NC2CCCCC2)n1/N=C/c1ccc(O)c(O)c1O [MIM1] + COc1cccc2cc(-c3nc([C@H]4CC[C@H](C(=O)O)CC4)n4ncnc(N)c34)[nH]c12 [OSI-027] (partner 0.5 µM)
relative viability (NCI-H1975; first compound 0.2 µM): 0.704 | relative viability (NCI-H1975; first compound 0.6325 µM): 0.734 | relative viability (NCI-H1975; first compound 2 µM): 0.584 | relative viability (NCI-H1975; first compound 6.325 µM): 0.36 | relative viability (NCI-H1975; first compound 20 µM): 0.336 | relative viability (EPLC-272H; first compound 0.2 µM): 0.254 | relative viability (EPLC-272H; first compound 0.6325 µM): 0.269 | relative viability (EPLC-272H; first compound 2 µM): 0.308 | relative viability (EPLC-272H; first compound 6.325 µM): 0.24 | relative viability (EPLC-272H; first compound 20 µM): 0.141 | relative viability (NCI-H441; first compound 0.2 µM): 0.575 | relative viability (NCI-H441; first compound 2 µM): 0.625 | relative viability (NCI-H441; first compound 6.325 µM): 0.472 | relative viability (NCI-H441; first compound 20 µM): 0.191 | relative viability (NCI-H2342; first compound 0.2 µM): 0.675 | relative viability (NCI-H2342; first compound 0.6325 µM): 0.59 | relative viability (NCI-H2342; first compound 2 µM): 0.663 | relative viability (NCI-H2342; first compound 6.325 µM): 0.633 | relative viability (NCI-H2342; first compound 20 µM): 0.728 | relative viability (NCI-H2228; first compound 0.2 µM): 0.773 | relative viability (NCI-H2228; first compound 0.6325 µM): 0.502 | relative viability (NCI-H2228; first compound 2 µM): 0.653 | relative viability (NCI-H2228; first compound 6.325 µM): 0.217 | relative viability (NCI-H2228; first compound 20 µM): 0.137 | relative viability (COR-L 105; first compound 0.2 µM): 0.733 | relative viability (COR-L 105; first compound 0.6325 µM): 0.725 | relative viability (COR-L 105; first compound 2 µM): 0.596 | relative viability (COR-L 105; first compound 6.325 µM): 0.582 | relative viability (COR-L 105; first compound 20 µM): 0.552 | relative viability (NCI-H1355; first compound 0.2 µM): 0.409 | relative viability (NCI-H1355; first compound 0.6325 µM): 0.366 | relative viability (NCI-H1355; first compound 2 µM): 0.399 | relative viability (NCI-H1355; first compound 6.325 µM): 0.372 | relative viability (NCI-H1355; first compound 20 µM): 0.253 | relative viability (NCI-H2085; first compound 0.2 µM): 0.676 | relative viability (NCI-H2085; first compound 0.6325 µM): 0.808 | relative viability (NCI-H2085; first compound 2 µM): 0.712 | relative viability (NCI-H2085; first compound 6.325 µM): 0.565 | relative viability (NCI-H2085; first compound 20 µM): 0.446 | relative viability (H3255; first compound 0.2 µM): 0.596 | relative viability (H3255; first compound 0.6325 µM): 0.575 | relative viability (H3255; first compound 2 µM): 0.572 | relative viability (H3255; first compound 6.325 µM): 0.519 | relative viability (H3255; first compound 20 µM): 0.313 | relative viability (HCC-366; first compound 0.2 µM): 0.852 | relative viability (HCC-366; first compound 2 µM): 0.677 | relative viability (HCC-366; first compound 6.325 µM): 0.186 | relative viability (HCC-366; first compound 20 µM): 0.0446 | relative viability (NCI-H2087; first compound 0.2 µM): 0.688 | relative viability (NCI-H2087; first compound 0.6325 µM): 0.511 | relative viability (NCI-H2087; first compound 2 µM): 0.696 | relative viability (NCI-H2087; first compound 6.325 µM): 0.547 | relative viability (NCI-H2087; first compound 20 µM): 0.34 | relative viability (NCI-H2009; first compound 0.2 µM): 0.697 | relative viability (NCI-H2009; first compound 0.6325 µM): 0.685 | relative viability (NCI-H2009; first compound 2 µM): 0.684 | relative viability (NCI-H2009; first compound 6.325 µM): 0.424 | relative viability (NCI-H2009; first compound 20 µM): 0.142 | relative viability (NCI-H1792; first compound 0.2 µM): 0.737 | relative viability (NCI-H1792; first compound 0.6325 µM): 0.807 | relative viability (NCI-H1792; first compound 2 µM): 0.791 | relative viability (NCI-H1792; first compound 6.325 µM): 0.578 | relative viability (NCI-H1792; first compound 20 µM): 0.596 | relative viability (ABC-1; first compound 0.2 µM): 0.481 | relative viability (ABC-1; first compound 0.6325 µM): 0.46 | relative viability (ABC-1; first compound 2 µM): 0.388 | relative viability (ABC-1; first compound 6.325 µM): 0.236 | relative viability (ABC-1; first compound 20 µM): 0.298 | relative viability (EKVX; first compound 0.2 µM): 0.803 | relative viability (EKVX; first compound 0.6325 µM): 0.767 | relative viability (EKVX; first compound 2 µM): 0.719 | relative viability (EKVX; first compound 6.325 µM): 0.53 | relative viability (EKVX; first compound 20 µM): 0.583 | relative viability (ChaGo-K-1; first compound 0.2 µM): 0.597 | relative viability (ChaGo-K-1; first compound 0.6325 µM): 0.433 | relative viability (ChaGo-K-1; first compound 2 µM): 0.535 | relative viability (ChaGo-K-1; first compound 6.325 µM): 0.387 | relative viability (ChaGo-K-1; first compound 20 µM): 0.159 | relative viability (NCI-H322M; first compound 0.2 µM): 0.593 | relative viability (NCI-H322M; first compound 0.6325 µM): 0.526 | relative viability (NCI-H322M; first compound 2 µM): 0.543 | relative viability (NCI-H322M; first compound 6.325 µM): 0.508 | relative viability (NCI-H322M; first compound 20 µM): 0.288 | relative viability (NCI-H460; first compound 0.2 µM): 0.651 | relative viability (NCI-H460; first compound 0.6325 µM): 0.66 | relative viability (NCI-H460; first compound 2 µM): 0.42 | relative viability (NCI-H460; first compound 6.325 µM): 0.423 | relative viability (NCI-H460; first compound 20 µM): 0.0316 | relative viability (HCC-827; first compound 0.2 µM): 0.758 | relative viability (HCC-827; first compound 0.6325 µM): 0.775 | relative viability (HCC-827; first compound 2 µM): 0.695 | relative viability (HCC-827; first compound 6.325 µM): 0.529 | relative viability (HCC-827; first compound 20 µM): 0.187 | relative viability (CAL-12T; first compound 0.2 µM): 0.607 | relative viability (CAL-12T; first compound 0.6325 µM): 0.579 | relative viability (CAL-12T; first compound 2 µM): 0.57 | relative viability (CAL-12T; first compound 6.325 µM): 0.445 | relative viability (CAL-12T; first compound 20 µM): 0.143 | relative viability (NCI-H1993; first compound 0.2 µM): 0.515 | relative viability (NCI-H1993; first compound 0.6325 µM): 0.57 | relative viability (NCI-H1993; first compound 2 µM): 0.557 | relative viability (NCI-H1993; first compound 6.325 µM): 0.518 | relative viability (NCI-H1993; first compound 20 µM): 0.474 | relative viability (SK-MES-1; first compound 0.2 µM): 0.656 | relative viability (SK-MES-1; first compound 0.6325 µM): 0.643 | relative viability (SK-MES-1; first compound 2 µM): 0.591 | relative viability (SK-MES-1; first compound 6.325 µM): 0.439 | relative viability (SK-MES-1; first compound 20 µM): 0.15
